According to patent US20250066347A1, “SUBSTITUTED THIAZOLIDINEDIONE DERIVATIVE COMPOUND, AND PHARMACEUTICAL COMPOSITION FOR PREVENTING OR TREATING CANCER, COMPRISING SAME” (MEDIFIC, INC., priority 2021, published 2025):

Experiments:
HOG-GSC cells = test: Comparison of cell viability in brain tumor stem cell (MTS assay); type: cell-based; settings: 72 hours, DMSO control = 1, value below 0.5 = viability decreased by 50% or more
Description: HOG-GSC cells which are brain tumor stem cells were treated with 11 compounds at 10 μM and DMSO as a control group, and the number of surviving cells after 72 hours was evaluated by MTS assay.
HOG-GSC which is a brain tumor stem cell was seeded on a 96-well plate at 5000 cells per well, and was cultured in an incubator (ThermoFisher) at 37° C. and 5% CO2 for 24 hours for stabilization of cells. Thereafter, it was treated with 11 compounds of the present invention at […] each, and treated with the same volume of DMSO as a control group as the volume of each compound. After treatment with the compound of the present invention and the control group, cells were cultured in an incubator at 37° C. and 5% CO2 for 72 hours. Thereafter, since there were many living cells in each well, cell viability was quantified using a cell viability assay kit (LPS solution) of which the color becomes darker with an increase in the number of cells. After treatment with the cell viability assay solution, a reaction was performed in an incubator at 37° C. and 5% CO2 for 3 hours to perform coloration, absorbance at 450 nm was measured using a microplate reader (BioTek), and an absorbance intensity of the control group was set to 1 and the absorbance of cells treated with each compound was normalized and is shown in FIG. 2.

SREBP = test: Cell-based assay system using a 6xSRE reporter vector (copGFP intensity) in HOG-GSC-6xSRE-copGFP_HIGH cells; parameters: dose or concentration left out as unconfirmed; settings: copGFP intensity normalized to DMSO control = 1, 72 hours
Source text: First, as shown in (a) of FIG. 1, SRE(5′-ATCACCCCAC-3′) 6 copies which are DNA seCuences to which a transcription factor, SREBP active form bonds were inserted into a minimal CMV promoter 5′ front end of a pGreenfire-Lenti-reporter vector to produce a 6xSRE reporter vector. The 6xSRE reporter vector is a vector system in which a minimal CMV promoter is activated only when SREBP in an activated form bonds to 6xSRE and copGFP is expressed, and after the vector was introduced to HOG-GSC which is a brain tumor stem cell, separation into a GFP high cell and a GFP low cell through FACS sorting was performed. Each of SREBP1a and SREBP1c in an active form was overexpressed in separated GFP-low cells (b of FIG. 1), and it was measured therefrom whether the expression amount of GFP was increased. As a result, it was confirmed that the overexpression of SREBP1a and SREBP1c active forms increased GFP expression by 43.30% and 93.49%, in separated GFP-low cells (c of FIG. 1). The separated GFP-high cells were treated with each of fatostatin and FGH10019 known to inhibit activity of DMSO and SREBP which was a control group to measure a change in the expression amount of GFP, and, as a result, it was confirmed that when treated with known materials, fatostatin and FGH10019, the expression of GFP was inhibited by up to 50% (d of FIG. 1).
HOG-GSC-6xSRE-copGFP_HIGH cells were dispensed into a 96-well plate (Corning) at 5000/well, each well was treated […], and then all wells were photographed every 3 hours for 72 hours in an incubator (ThermoFisher) at […], 5% CO2, using real-time cell imaging equipment (Incucyte) to photograph changes in copGFP intensity.

SMILES	cell viability inhibition effect (normalized MTS value) (HOG-GSC cells)	activity (SREBP) [%]
CC(C)(C)c1ccc(-n2cccc2/C=C2\SC(=O)NC2=O)cc1 [Compound 3, (Z)-5-((1-(4-(tert-butyl)phenyl)-1H-pyrrol-2-yl)methylene) thiazolidine-2,4-dione]	significant cell viability inhibition effect	1
Cc1ccc(-c2cc(/C=C3\SC(=O)NC3=O)ccn2)cc1 [Compound 10, (Z)-5-((2-(p-tolyl)pyridin-4-yl)methylene)thiazolidine-2,4-dione]	significant cell viability inhibition effect	8.8
O=C1NC(=O)/C(=C/c2ccnc(-c3ccc(C(F)(F)F)cc3)c2)S1 [Compound 12, (Z)-5-((2-(4-(trifluoromethyl)phenyl)pyridin-4-yl)methylene) thiazolidine-2,4-dione]	significant cell viability inhibition effect	5.9
O=C1NC(=O)/C(=C/c2ccnc(-c3ccc(OC(F)(F)F)cc3)c2)S1 [Compound 14, (Z)-5-((2-(4-(trifluoromethoxy)phenyl)pyridin-4-yl)methylene) thiazolidine-2,4-dione]	significant cell viability inhibition effect	1.7
O=C1NC(=O)/C(=C/c2ccnc(-c3ccc(OCc4ccccc4)cc3)c2)S1 [Compound 15, (Z)-5-((2-(4-(benzyloxy)phenyl)pyridin-4-yl)methylene)thiazolidine-2,4-dione]	significant cell viability inhibition effect	8.6
CC(C)(C)c1cccc(-c2cc(/C=C3\SC(=O)NC3=O)ccn2)c1 [Compound 18, (Z)-5-((2-(3-(tert-butyl)phenyl)pyridin-4-yl)methylene)thiazolidine-2,4-dione]	significant cell viability inhibition effect	1.3
Cc1cc(C)cc(-c2cc(/C=C3\SC(=O)NC3=O)ccn2)c1 [Compound 19, (Z)-5-((2-(3,5-Dimethylphenyl)pyridin-4-yl)methylene)thiazolidine-2,4-dione]	significant cell viability inhibition effect	1.8
O=C1NC(=O)/C(=C/c2ccc(-c3ccc(OC(F)(F)F)cc3)nc2)S1 [Compound 25, (Z)-5-((6-(4-(trifluoromethoxy)phenyl)pyridin-3-yl)methylene) thiazolidine-2,4-dione]	significant cell viability inhibition effect	6.3
CC(C)(C)c1ccc(-c2cncc(/C=C3\SC(=O)NC3=O)c2)cc1 [Compound 28, (Z)-5-((5-(4-(tert-butyl)phenyl)pyridin-3-yl)methylene)thiazolidine-2,4-dione]	significant cell viability inhibition effect	4.8
CC(C)(C)c1ccc(-c2ccnc(/C=C3\SC(=O)NC3=O)c2)cc1 [Compound 31, (Z)-5-((4-(4-(tert-butyl)phenyl)pyridin-2-yl)methylene)thiazolidine-2,4-dione]	significant cell viability inhibition effect	4.5
